Source: the RepoRT retention time repository (doi:10.1016/j.foodchem.2018.09.045)

Experiment: RP, Thermo Scientific Syncronis C18, 100 × 2.1 mm, 1.7 µm, 0.3 mL/min, estimated dead time 0.73 min; A: water + 0.1% acetic acid; B: acetonitrile + 0.1% acetic acid; gradient (min/%B) 0/5 1/5 16/95
Settings: stereoisomer not certain

LC retention time	Structure (SMILES)
4.44 min	O=C(O)c1ccc(O)c(O)c1
5.26 min	O=C(C=Cc1ccc(O)c(O)c1)OC1CC(O)(C(=O)O)CC(O)C1O (stereo unspecified)
6.71 min	O=c1c(OC2OC(CO)C(O)C(O)C2O)c(-c2ccc(O)c(O)c2)oc2cc(O)cc(O)c12 (stereo unspecified)
5.63 min	COc1cc(C(=O)O)ccc1O
8.59 min	O=C1CC(c2ccc(O)c(O)c2)Oc2cc(O)cc(O)c21 (stereo unspecified)
9.87 min	COc1cc(-c2oc3cc(O)cc(O)c3c(=O)c2O)ccc1O
5.41 min	O=C(O)c1ccc(O)cc1
12.2 min	COc1ccc(-c2cc(=O)c3c(O)cc(O)cc3o2)cc1
8.24 min	O=c1c(O)c(-c2ccc(O)c(O)c2)oc2cc(O)cc(O)c12
10.8 min	COc1cc(O)c2c(=O)cc(-c3ccc(O)cc3)oc2c1
11.7 min	O=C1CC(c2ccccc2)Oc2cc(O)cc(O)c21 (stereo unspecified)
11.8 min	O=c1c(O)c(-c2ccccc2)oc2cc(O)cc(O)c12
7.02 min	COc1cc(C=CC(=O)O)cc(OC)c1O
8.69 min	O=c1cc(-c2ccc(O)c(O)c2)oc2cc(O)cc(O)c12
7.03 min	CC1OC(OC2C(Oc3cc(O)c4c(c3)OC(c3ccc(O)cc3)CC4=O)OC(CO)C(O)C2O)C(O)C(O)C1O (stereo unspecified)
5.48 min	O=C(O)c1cc(O)ccc1O
11.8 min	COc1ccc(-c2oc3cc(O)cc(O)c3c(=O)c2O)cc1
7.04 min	COc1cc(C=CC(=O)O)ccc1O
6.68 min	O=C(O)C=Cc1ccc(O)cc1
5.62 min	O=C(O)Cc1ccc(O)cc1
9.44 min	O=C1CC(c2ccc(O)cc2)Oc2cc(O)cc(O)c21 (stereo unspecified)
9.53 min	O=c1c(-c2ccc(O)cc2)coc2cc(O)cc(O)c12
9.94 min	COc1cc(-c2cc(=O)c3c(O)cc(O)cc3o2)ccc1O
7.9 min	COc1cc(C=CC=O)ccc1O
9.7 min	O=c1c(O)c(-c2ccc(O)cc2)oc2cc(O)cc(O)c12
7.17 min	CC1OC(Oc2c(-c3ccc(O)c(O)c3)oc3cc(O)cc(O)c3c2=O)C(O)C(O)C1O (stereo unspecified)
9.52 min	O=c1cc(-c2ccc(O)cc2)oc2cc(O)cc(O)c12
11.6 min	O=c1cc(-c2ccccc2)oc2cc(O)cc(O)c12
9.74 min	O=C1c2c(O)cc(O)cc2OC(c2ccccc2)C1O (stereo unspecified)
6.44 min	CC1OC(OCC2OC(Oc3c(-c4ccc(O)c(O)c4)oc4cc(O)cc(O)c4c3=O)C(O)C(O)C2O)C(O)C(O)C1O (stereo unspecified)

Structure (SMILES)	LC retention time
O=c1ccc2cc(OC3OC(CO)C(O)C(O)C3O)c(O)cc2o1 (stereo unspecified)	4.91 min
